Patent US20030187075A1, “Sponge antitumor compounds” (priority 2000, published 2003)
In brackets after ≈: the same amount, converted by molar mass.

Key:
Assay type in all cases: cell-based
MEL28 (Melanoma) = experiment: Antitumoral activity, cytotoxicity against MEL28; conditions: Homo sapiens, SK-MEL-28; MEL28 (Melanoma) cells
HT29 (Human Colon) = experiment: Antitumoral activity, cytotoxicity against HT29; conditions: HT-29; HT29 (Human Colon) cells
P388 Leukaemia = experiment: Antitumoral activity, cytotoxicity against P388; conditions: Mus musculus; P388 Leukaemia cells
A549 (Human Lung) = experiment: Antitumoral activity, cytotoxicity against A549; conditions: A549 (Human Lung) cells

| Compound | IC50 (MEL28 (Melanoma)) [µg/mL] | IC50 (HT29 (Human Colon)) [µg/mL] | IC50 (P388 Leukaemia) [µg/mL] | IC50 (A549 (Human Lung)) [µg/mL] |
| --- | --- | --- | --- | --- |
| CC1(C)[C@@H](Cl)[C@@H](O)C[C@]2(C)C/C(=C/C=O)CC[C@@H]12 [Compound 2] | 1 (≈ 3.69 µM) | 1 (≈ 3.69 µM) | 1 (≈ 3.69 µM) | 1 (≈ 3.69 µM) |
| CC1(C)[C@@H](Cl)CC[C@]2(C)C=C(C=CN=C(Cl)Cl)CC[C@@H]12 [Compound 4] | 1 (≈ 2.99 µM) | 1 (≈ 2.99 µM) | 1 (≈ 2.99 µM) | 1 (≈ 2.99 µM) |
| CC1(C)[C@@H](Cl)[C@@H](O)C[C@]2(C)C/C(=C\C=O)CC[C@@H]12 [Compound 3] | 1 (≈ 3.69 µM) | 1 (≈ 3.69 µM) | 1 (≈ 3.69 µM) | 1 (≈ 3.69 µM) |
| C=C(CC[C@@H]1C(=C)CC[C@H](Cl)C1(C)C)C(Cl)CN=C(Cl)Cl (stereo partly shown) [Compound 1] | 0.1 (≈ 0.269 µM) | 0.1 (≈ 0.269 µM) | 1 (≈ 2.69 µM) | 0.1 (≈ 0.269 µM) |
